Our source for the LC retention time values is the RepoRT retention time repository (doi:10.1016/j.chroma.2012.12.030).

The data set in a line: RP, Waters ACQUITY UPLC BEH C18, 100 × 2.1 mm, 1.7 µm, 60 °C, 0.3 mL/min, estimated dead time 0.73 min; A: water + 0.01% formic acid; B: methanol + 0.01% formic acid; gradient (min/%B) 0/10 14/90 16/90. The note with it: stereoisomer not certain.
For the compound `COc1cc(O)c(C(=O)c2ccccc2)cc1S(=O)(=O)O`, the LC retention time is 6.4 min.
Under `CCC1OC(=O)C(C)C(OC2CC(C)(OC)C(O)C(C)O2)C(C)C(OC2OC(C)CC(N(C)C)C2O)C(C)(O)CC(C)C(=NOCOCCOC)C(C)C(O)C1(C)O` (stereo unspecified) stands 9.99 min; under `Cc1nnc(N=S(=O)(O)c2ccc(N)cc2)s1`, 3.19 min; under `COc1ccc2cc(C(C)C(=O)O)ccc2c1` (stereo unspecified), 9.74 min.
Turning to `CNC(C)Cc1ccc2c(c1)OCO2` (stereo unspecified), the LC retention time is 3.02 min.
Regarding `CNC(=O)Oc1cc(C)c(SC)c(C)c1`, the LC retention time was 9.95 min.
